Data as given in US6759385B1, “Methods to treat undesirable immune responses” (Regents of the University of Minnesota, priority 1997, dated 2004).
“Also recorded” adds a separate entry of the source.

Assays:
[1] = test system: CD8+ depleted spleen cells; assay: Lymphocyte proliferation assay, CD8+ depleted spleen cells of IL-4 KO mice; type: cell-based, mouse; conditions: for recognition of individual peptide by cells from sham-treated mice: IL-4 KO mice immunized with TAChR, 10 μg/ml peptide
Experimental: Lymphocyte Proliferation Assay. Two weeks after the last immunization, spleen cells (Bellone et al., 1991) were obtained from three identically treated IL-4 KO mice. The cells were pooled and depleted them in CD8^+ cells using paramagnetic beads and rat anti-mouse CD8^+ antibody (Pharmingen, San Diego, Calif.). The cells were suspended in RPMI-1640 (Gibco, Grand Island, N.Y.) supplemented with 10% heat inactivated fetal calf serum (Gibco), 50 μM 2-mercaptoethanol, 1 mM L-glutamine, 10 mM Hepes, 1 mM sodium pyruvate, 100 U/ml penicillin and 100 μg/ml streptomycin (×10^6 cells/ml). The cells were seeded in triplicate in 96 flat-bottom well plates (200 μl/well). One of the following antigens or stimulants was added: 10 μg/ml phytohemoagglutinine (PHA) (Sigma); 10 μg/ml TAChR; the pools of overlapping peptides spanning the α, β, γ, or δ subunit sequences (5 μg/ml) of each peptide); and 10 μg/ml of the individual a subunit peptides. Controls were triplicate wells cultivated without any antigen, or with or a 20-residue control peptide synthesized by the same method, unrelated to the TAChR sequence (10 μg). After four days the cells were labeled for 16 hours with ^3H-thymidine (1 μCi per well, specific activity 6.7 Ci/mmol, Dupont, Boston, Mass.), and harvested (Titertek, Skatron, Sterling, Va.). The ^3H-thymidine incorporation was measured by liquid scintillation.

EMG = conditions: s.c. or i.p. 300 μg in IFA, 7 days before or 7-18 days after first TAChR immunization; cited from earlier work
mice with EMG weakness = assay: Verification of myasthenic weakness with cholinesterase inhibitor in TAChR-immunized mice; type: in vivo, mouse; conditions: i.p.
Experimental: To verify the myasthenic nature of the weakness observed, mice with significant weakness were injected i.p. with the cholinesterase inhibitor edrophonium chloride (Reversol, Organon Inc., West Orange, N.J.). […] The test was performed blindly, i.e., without knowledge of the treatment that the mouse had received.
Evaluation of Clinical Symptoms of EMG. The symptoms of EMG were quantified using a forced exercise by the inverted hang technique, sensitized by a minute amount of pancuronium bromide (0.03 mg/kg intraperitoneum), given just before the test (Karachunski et al., 1995). The mice hang from a grid, and the time it took for the mouse to release its hold and fall three times is measured (“holding time”). […] This test is parametric, and gives a quantitative assessment of the severity of the mouse weakness. […]
Evaluation of the symptoms of EMG The EMG symptoms were quantified using a forced exercise test sensitized by i.p. injection of a minute amount of pancuronium bromide (0.03 mg/kg) just before the test (Karachunski et al., 1995). The mouse hangs from a grid suspended above a soft padding, and the time it takes the mouse to fall three times (‘holding time’) was measured. The test is parametric, and gives a quantitative assessment of the mouse weakness. […]

[2] = test system: SCID mice engrafted with BL; assay: Verification of myasthenic weakness with cholinesterase inhibitor in SCID mice engrafted with BL from MG patients; type: in vivo, mouse
Experimental: Assay of myasthenic symptoms. The myasthenic symptoms were quantified using a forced exercise test sensitized by administration of a minute amount of pancuronium bromide (0.03 mg/kg intraperitoneum) just before the test. The small amount of pancuronium inactivates a fraction of the mouse muscle AChR. […] The mice hang from a grid suspended above a soft padding, and the time it took the mouse to fall three times (“holding time”) was measured. The test is parametric and gives a quantitative assessment of the mouse weakness. The mice were tested without knowledge of the type of cells engrafted.
The myasthenic nature of the weakness was verified by injecting intraperitoneum edrophonium chloride (Reversol; Organon Inc., West Orange, N.J.). […] The concentrations of human IgG and IgM in the mouse sera was measured by ELISA. Microtiter plates (Nunc, Roskilde, Denmark) were coated with goat anti-human IgG or IgM Ab (pierce, Rockford, Ill.) in 20 mM sodium carbonate buffer, pH 9.5 (coating buffer), and blocked any uncoated sites with 3% bovine serum albumin (BSA) in coating buffer. Mouse sera diluted serially in PBS was added, and incubated at 4° C. overnight. After four washings with PBS containing 1% Triton X-100, peroxidase conjugated anti-human IgG and IgM Ab (Sigma, St. Louis, Mo.) was added. […] The optical density of the plates was read at 490 nm in an ELISA reader. […]

[3] = test system: anti-TAChR and anti-peptide IgG subclasses; assay: ELISA of anti-TAChR and anti-peptide IgG subclasses (Example III); type: in vivo, mouse; conditions: IL-4 KO mice, nasal α epitope pool
Experimental: Assay of Anti-TAChR and Anti-peptide IgG Subclasses. The relative concentration of IgG subclasses of anti-TAChR and anti-peptide antibodies in the sera of peptide- and sham-treated mice was measured by ELISA after immunization with TAChR. Pooled sera from three-four mice that had received identical treatments was used. The sera used in this assay was obtained at the end of the observation period (10 weeks after beginning of the anti-TAChR immunization).
Ninety-six well plates (Nunc, Karstrup, Denmark) were washed extensively and incubated as follows: 4 hours with a 10 μg/ml solution of TAChR or of individual peptides Tα150-169, Tα181-200 and Tα360-378 in 0.1 M Na phosphate buffer, pH 9.5 (two wells for each antigen), 1 hr with PBS plus 3% bovine serum albumin (BSA), 2 hours with mouse serum (serial dilutions from 1:100 to 1:40,000 in PBS plus 3% BSA), 1 hr with a dilution 1:1000 in PBS plus 3% BSA of goat antibody specific for the total IgG, or IgGl, or IgG2a, or IgG2b or IgG3 (Mouse Monoclonal Isotyping Kit, Sigma, St. Louis, Mo.), and 30 minutes with a 1:3000 dilution of peroxidase-conjugate rabbit anti-goat IgG (Sigma) in PBS plus 3% BSA. The plates were washed, and developed them for 20-60 minutes with ABTS peroxidase substrate system (Kirkegaard & Perry Laboratories Inc., Gaithersburg, Md.). […] The OD was read at 405 nanometers. […]

spleen CD4+ T-cells = assay: Lymphocyte proliferation assay, spleen CD4+ T-cells (Example IV); type: cell-based, mouse; conditions: TAChR-immunized B6 mice, 5 or 10 μg/ml
Experimental: Lymphocyte proliferation assay. Five to seven days after the last TAChR immunization, CD4^+ T-cells (Bellone et al., 1991a) were purified from the pooled spleens of three to four mice that had received identical treatments. Irradiated (3000 rad) spleen cells from non-immunized mice were diluted as needed in RPMI-1640 (Gibco, Grand Island, N.Y.) supplemented with 10% heat inactivated fetal calf serum (Gibco), 50 μM 2-mercapto-ethanol, 1 mM L-glutamine, 10 mM HEPES, 1 mM sodium pyruvate, 100 U/ml penicillin and 100 μg/ml streptomycin (culture medium) and used as APC. The spleen CD4^+ T-cells (1×10^6/ml in culture medium, 100×1/well) were seeded in triplicate in 96 flat-bottom well plates containing 100×1 of 5×10^6/ml APC. One of the following Ag was added: 10 μg/ml PHA (Sigma); 5 or 10 μg/ml TAChR; 5 or 10 μg/ml of the individual epitope peptides. The concentrations of TAChR and epitope peptides are in the saturating range of the dose dependence curve (Bellone et al., 1991a), and yielded consistent results. Controls were triplicate wells containing CD4^+ cells and APC without any Ag, or with the control peptide (10 μg/ml). After 4 days the cells were labeled for 16 hours with ^3H-thymidine (1 μCi per well, specific activity 6.7 Ci/mmol, Dupont, Boston, Mass.) and harvested (Titertek, Skatron, Sterling, Va.). The ^3H-thymidine incorporation was measured by liquid scintillation, and represented the results as stimulation indexes (S.I.: the ratio between the cpm obtained in the presence of a given stimulus, and the average cpm obtained for non-stimulated control cultures).

anti-FVIII CD4+ cells = assay: CD4+ epitope repertoire to FVIII in hemophilia A mice; type: cell-based, mouse; conditions: mice immunized s.c. with FVIII in Freund adjuvant
Description: CD4^+ epitope repertoire to FVIII in hemophilia A mice. Mice were immunized with 1 microgram of purified recombinant human FVIII emulsified in Freund adjuvant, and injected subcutaneously three times. The first injection utilized complete Freund adjuvant. This procedure, as opposed to i.v. injections of soluble FVIII, was selected to ensure a strong immunization to FVIII and to reveal the broadest epitope repertoire recognized by anti-FVIII CD4^+ cells.
FIG. 48 summarizes the results obtained regarding the anti-FVIII CD4^+ repertoire in the mice thus immunized. The individual peptides are indicated with codes that include two numbers, corresponding to the position of the first and last peptide residue on the sequence of the FVIII precursor. The responses to the individual peptides are organized in panels corresponding to the different domains, as indicated.

Molecule: peptide Tα146-162: overlapping synthetic TAChR α subunit peptide that overlaps Tα150-169 (LGIWTYDGTKVSISPES; UniProt P02710 170-186, looked up, fragment)
- recognition of individual peptide by cells from peptide-treated mice ([1]; IL-4 KO mice): strongly
- recognition of individual peptide by cells from sham-treated mice [1]: recognized strongly
- effect on EMG (EMG): prevented EMG

Molecule: CC[N+](C)(C)c1cccc(O)c1 [Reversol, edrophonium chloride]
- effect on strength of mice with weakness (mice with EMG weakness): immediately improved the strength; also recorded: immediately increased the strength
- effect on muscle strength of mice with normal holding time ([2]; SCID mice): did not increase the muscle strength
- effect on strength of affected mice ([2]; intraperitoneum, SCID mice engrafted with BL from MG patients): immediately improved the strength; also recorded: improvement of the muscle strength

Molecule: peptide Tα360-378: synthetic peptide corresponding to residues 360-378 of the TAChR α subunit (VIFQTPLIKNPDVKSAIEG; UniProt P02710 384-402, looked up, fragment)
- recognition of individual peptide by cells from sham-treated mice [1]: recognized strongly
- anti-peptide IgG2a [3]: moderate synthesis of IgG2a
- response of CD4+ cells from sham-tolerized mice to the peptide (spleen CD4+ T-cells): three of the five

Molecule: 1671-1690: synthetic peptide, residues 1671-1690 of the FVIII precursor (RTTLQSDQEEIDYDDTISVE; UniProt P00451 1671-1690, looked up, fragment)
- recognition of individual FVIII peptides by CD4+ cells (anti-FVIII CD4+ cells): recognized especially strongly

Molecule: 1-20: synthetic peptide, residues 1-20 of the FVIII precursor (MQIELSTCFFLCLLRFCFSA; UniProt P00451 1-20, looked up, fragment)
- recognition of individual FVIII peptides by CD4+ cells (anti-FVIII CD4+ cells): recognized especially strongly
